From ChEMBL document CHEMBL1201862, “PubChem BioAssay data set” (2004)
The source made the active and inactive calls.

Columns and labels:
Fatty acid synthase [1] = target: T1, Fatty acid synthase (Homo sapiens, UniProt P49327); assay: inhibition of human FAS-TE enzyme activity – biochemical, endpoint fluorescence intensity, uHTS hits, dose response (AID 624327); format: functional;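 note: fluorescence from hydrolysis of an O-methyl fluorescein acyl ester substrate by the enzyme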
Fatty acid synthase [2] = target: T1, Fatty acid synthase; assay: inhibition of human FAS-TE enzyme activity – biochemical, kinetic fluorescence intensity, dose response (AID 624326); format: functional;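 note: rate of fluorescence rise from hydrolysis of a fluorogenic O-methyl fluorescein ester substrate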
[3] = target: T2, Heat shock factor protein 1 (Mus musculus, UniProt P38532); assay: enhancement of HSF1-driven luciferase signal – cell-based, NIH3T3, luminescence, dose retest, confirmation (AID 435004); format: functional;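 note: stress induced by proteasome inhibitor MG132 added 30 min after compound; luciferase reporter driven by HSF1 response element in NIH3T3 cells; actives raise luminescence as potentiators of the MG132 stress response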
T2 sequence (P38532 whole entry): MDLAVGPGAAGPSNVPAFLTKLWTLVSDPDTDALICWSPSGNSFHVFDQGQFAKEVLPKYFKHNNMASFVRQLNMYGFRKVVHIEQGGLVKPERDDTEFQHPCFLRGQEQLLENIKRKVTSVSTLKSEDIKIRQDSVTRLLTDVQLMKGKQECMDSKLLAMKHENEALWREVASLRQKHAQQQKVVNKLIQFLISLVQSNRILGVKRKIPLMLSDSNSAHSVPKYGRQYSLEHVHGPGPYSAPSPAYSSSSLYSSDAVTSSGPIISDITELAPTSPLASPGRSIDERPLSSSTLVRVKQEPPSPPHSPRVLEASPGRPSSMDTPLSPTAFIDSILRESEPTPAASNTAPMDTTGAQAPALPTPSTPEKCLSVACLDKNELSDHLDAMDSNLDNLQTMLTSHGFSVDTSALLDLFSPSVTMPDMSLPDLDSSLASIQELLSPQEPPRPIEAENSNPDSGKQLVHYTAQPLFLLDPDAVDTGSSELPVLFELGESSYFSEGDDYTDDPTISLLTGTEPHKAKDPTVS

Cytochrome P450 1A2 = target: T3, Cytochrome P450 1A2 (Homo sapiens, UniProt P05177);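 note: PubChem cytochrome P450 panel assay, CYP1A2 panel member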
T3 sequence (P05177 whole entry): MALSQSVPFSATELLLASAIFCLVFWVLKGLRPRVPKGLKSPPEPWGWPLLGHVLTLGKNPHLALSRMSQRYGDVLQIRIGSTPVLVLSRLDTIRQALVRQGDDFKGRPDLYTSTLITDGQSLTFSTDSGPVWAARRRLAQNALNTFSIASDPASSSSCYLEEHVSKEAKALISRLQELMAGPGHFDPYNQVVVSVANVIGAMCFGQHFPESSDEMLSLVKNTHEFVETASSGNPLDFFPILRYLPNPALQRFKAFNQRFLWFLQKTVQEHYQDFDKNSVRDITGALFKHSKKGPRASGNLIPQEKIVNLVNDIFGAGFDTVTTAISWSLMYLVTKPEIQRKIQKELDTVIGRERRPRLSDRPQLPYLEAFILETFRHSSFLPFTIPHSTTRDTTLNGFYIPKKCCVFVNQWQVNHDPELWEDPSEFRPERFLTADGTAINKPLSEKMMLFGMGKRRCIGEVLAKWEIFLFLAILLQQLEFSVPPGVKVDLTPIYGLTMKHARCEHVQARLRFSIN

[4] = reduction of Shn3 3'UTR-driven luciferase in osteoblasts – cell-based, Clone20 osteoblasts, firefly luciferase, cherry-picked, dose response (AID 624132); format: functional;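 note: firefly luciferase luminescence from reporter carrying the Shn3 3'UTR in osteoblasts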
[5] = loss of viability in HepG2 cells – cell-based, CellTiter-Glo, cherry-picked, cytotoxicity control for Shn3 inhibitor project, dose response (AID 624134); format: functional
[6] = non-specific 3'UTR reporter inhibition in Clone20-Shn3RL – cell-based, Renilla luciferase, cherry-picked, counter-screen for Shn3 inhibitor project, dose response (AID 624133); format: functional
[7] = viability of uninfected HEp-2 cells – cell-based, HTS, cytotoxicity control for RSV inhibitor project, dose response (AID 2410); format: functional; conditions: human respiratory syncytial virus
[8] = target: T4, Replicative DNA helicase DnaB (Mycobacterium tuberculosis, UniProt P9WMR3); assay: DnaB intein splicing inhibitors, dose response, biochemical, cell-free fluorescence (AID 449749); format: functional
T4 sequence (P9WMR3 whole entry): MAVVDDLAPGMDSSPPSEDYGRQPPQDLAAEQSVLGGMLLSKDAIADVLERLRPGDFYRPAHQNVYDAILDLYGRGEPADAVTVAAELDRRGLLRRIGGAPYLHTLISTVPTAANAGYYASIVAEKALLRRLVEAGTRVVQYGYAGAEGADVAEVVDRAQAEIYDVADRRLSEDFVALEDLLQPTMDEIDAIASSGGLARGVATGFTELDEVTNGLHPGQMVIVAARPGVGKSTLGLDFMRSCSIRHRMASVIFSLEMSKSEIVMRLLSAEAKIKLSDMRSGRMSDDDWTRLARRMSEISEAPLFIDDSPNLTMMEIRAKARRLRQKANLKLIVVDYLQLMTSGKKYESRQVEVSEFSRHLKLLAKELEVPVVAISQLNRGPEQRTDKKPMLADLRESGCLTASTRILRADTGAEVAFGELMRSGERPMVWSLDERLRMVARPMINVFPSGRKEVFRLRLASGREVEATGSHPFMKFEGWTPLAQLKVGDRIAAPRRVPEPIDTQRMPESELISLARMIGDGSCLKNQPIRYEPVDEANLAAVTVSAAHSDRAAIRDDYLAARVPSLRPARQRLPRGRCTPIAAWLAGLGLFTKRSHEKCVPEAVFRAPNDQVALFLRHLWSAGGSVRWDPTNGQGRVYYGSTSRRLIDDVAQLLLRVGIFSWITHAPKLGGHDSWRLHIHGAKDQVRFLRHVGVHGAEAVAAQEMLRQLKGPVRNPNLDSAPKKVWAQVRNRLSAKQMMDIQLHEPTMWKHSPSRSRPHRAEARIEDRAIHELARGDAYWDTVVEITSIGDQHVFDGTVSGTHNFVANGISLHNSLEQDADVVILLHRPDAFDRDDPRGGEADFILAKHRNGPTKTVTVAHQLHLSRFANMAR

Protein RecA = target: T5, Protein RecA (Mycobacterium tuberculosis, UniProt P9WHJ3); assay: Fluorescence Cell-Free Homogeneous Dose Retest to Identify Inhibitors of RecA-Intein Splicing Activity. [Related pubchem assays (depositor defined):AID2097, AID2223, AID489010, AID492950]; format: functional
T5 sequence (P9WHJ3 whole entry): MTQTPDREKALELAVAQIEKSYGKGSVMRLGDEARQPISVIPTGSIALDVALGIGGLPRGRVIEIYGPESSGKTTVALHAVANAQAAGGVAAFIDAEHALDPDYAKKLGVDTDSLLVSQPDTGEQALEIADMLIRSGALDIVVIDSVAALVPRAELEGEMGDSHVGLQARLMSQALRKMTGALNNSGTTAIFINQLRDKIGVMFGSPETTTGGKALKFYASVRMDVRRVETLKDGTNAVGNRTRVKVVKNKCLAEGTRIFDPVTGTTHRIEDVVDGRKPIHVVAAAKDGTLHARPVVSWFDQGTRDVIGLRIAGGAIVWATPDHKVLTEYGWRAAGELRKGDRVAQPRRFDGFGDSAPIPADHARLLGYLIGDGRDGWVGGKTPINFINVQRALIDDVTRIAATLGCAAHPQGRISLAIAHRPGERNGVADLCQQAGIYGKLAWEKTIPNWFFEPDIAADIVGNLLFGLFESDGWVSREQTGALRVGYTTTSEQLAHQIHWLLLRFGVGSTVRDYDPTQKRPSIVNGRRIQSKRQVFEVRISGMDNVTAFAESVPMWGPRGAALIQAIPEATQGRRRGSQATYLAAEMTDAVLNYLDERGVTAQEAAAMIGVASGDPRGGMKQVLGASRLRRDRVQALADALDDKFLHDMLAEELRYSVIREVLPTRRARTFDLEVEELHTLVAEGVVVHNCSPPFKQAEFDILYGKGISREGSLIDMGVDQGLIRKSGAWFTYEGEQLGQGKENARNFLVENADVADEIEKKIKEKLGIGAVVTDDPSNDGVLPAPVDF

[9] = viability of PTEN-deleted HCT116 cells – cell-based, HCT116 PTEN knockout, dose response (AID 1047); format: functional;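 note: HCT116 colon tumor cells with PTEN knocked out; cells exposed to compound for 60 hours before readout; potency for loss of cell viability measured by luminescence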
[10] = viability of HCT116 lacking mutant beta-catenin – cell-based, human colon tumor, dose response (AID 1045); format: functional;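 note: HCT116 colon tumor cells with beta catenin knocked out; cells exposed to compound for 60 hours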
[11] = Luminescence Cell-Based Dose Response HTS to Identify Activators of Luciferase Translation or Activity in H4 […] Cells. [Related pubchem assays: 1829 (Project Summary), 1814 (Primary HTS)]; format: functional
H4 = assay: Luminescence Cell-Based Dose Response HTS to Identify Activators of 5'UTR Stem-Loop Driven Prion Protein mRNA Translation in H4 Neuroglioblastoma Cells. [Related pubchem assays: 1829 (Project Summary), 1814 (Primary HTS)]; format: functional; conditions: Homo sapiens

T1 sequence (P49327 whole entry): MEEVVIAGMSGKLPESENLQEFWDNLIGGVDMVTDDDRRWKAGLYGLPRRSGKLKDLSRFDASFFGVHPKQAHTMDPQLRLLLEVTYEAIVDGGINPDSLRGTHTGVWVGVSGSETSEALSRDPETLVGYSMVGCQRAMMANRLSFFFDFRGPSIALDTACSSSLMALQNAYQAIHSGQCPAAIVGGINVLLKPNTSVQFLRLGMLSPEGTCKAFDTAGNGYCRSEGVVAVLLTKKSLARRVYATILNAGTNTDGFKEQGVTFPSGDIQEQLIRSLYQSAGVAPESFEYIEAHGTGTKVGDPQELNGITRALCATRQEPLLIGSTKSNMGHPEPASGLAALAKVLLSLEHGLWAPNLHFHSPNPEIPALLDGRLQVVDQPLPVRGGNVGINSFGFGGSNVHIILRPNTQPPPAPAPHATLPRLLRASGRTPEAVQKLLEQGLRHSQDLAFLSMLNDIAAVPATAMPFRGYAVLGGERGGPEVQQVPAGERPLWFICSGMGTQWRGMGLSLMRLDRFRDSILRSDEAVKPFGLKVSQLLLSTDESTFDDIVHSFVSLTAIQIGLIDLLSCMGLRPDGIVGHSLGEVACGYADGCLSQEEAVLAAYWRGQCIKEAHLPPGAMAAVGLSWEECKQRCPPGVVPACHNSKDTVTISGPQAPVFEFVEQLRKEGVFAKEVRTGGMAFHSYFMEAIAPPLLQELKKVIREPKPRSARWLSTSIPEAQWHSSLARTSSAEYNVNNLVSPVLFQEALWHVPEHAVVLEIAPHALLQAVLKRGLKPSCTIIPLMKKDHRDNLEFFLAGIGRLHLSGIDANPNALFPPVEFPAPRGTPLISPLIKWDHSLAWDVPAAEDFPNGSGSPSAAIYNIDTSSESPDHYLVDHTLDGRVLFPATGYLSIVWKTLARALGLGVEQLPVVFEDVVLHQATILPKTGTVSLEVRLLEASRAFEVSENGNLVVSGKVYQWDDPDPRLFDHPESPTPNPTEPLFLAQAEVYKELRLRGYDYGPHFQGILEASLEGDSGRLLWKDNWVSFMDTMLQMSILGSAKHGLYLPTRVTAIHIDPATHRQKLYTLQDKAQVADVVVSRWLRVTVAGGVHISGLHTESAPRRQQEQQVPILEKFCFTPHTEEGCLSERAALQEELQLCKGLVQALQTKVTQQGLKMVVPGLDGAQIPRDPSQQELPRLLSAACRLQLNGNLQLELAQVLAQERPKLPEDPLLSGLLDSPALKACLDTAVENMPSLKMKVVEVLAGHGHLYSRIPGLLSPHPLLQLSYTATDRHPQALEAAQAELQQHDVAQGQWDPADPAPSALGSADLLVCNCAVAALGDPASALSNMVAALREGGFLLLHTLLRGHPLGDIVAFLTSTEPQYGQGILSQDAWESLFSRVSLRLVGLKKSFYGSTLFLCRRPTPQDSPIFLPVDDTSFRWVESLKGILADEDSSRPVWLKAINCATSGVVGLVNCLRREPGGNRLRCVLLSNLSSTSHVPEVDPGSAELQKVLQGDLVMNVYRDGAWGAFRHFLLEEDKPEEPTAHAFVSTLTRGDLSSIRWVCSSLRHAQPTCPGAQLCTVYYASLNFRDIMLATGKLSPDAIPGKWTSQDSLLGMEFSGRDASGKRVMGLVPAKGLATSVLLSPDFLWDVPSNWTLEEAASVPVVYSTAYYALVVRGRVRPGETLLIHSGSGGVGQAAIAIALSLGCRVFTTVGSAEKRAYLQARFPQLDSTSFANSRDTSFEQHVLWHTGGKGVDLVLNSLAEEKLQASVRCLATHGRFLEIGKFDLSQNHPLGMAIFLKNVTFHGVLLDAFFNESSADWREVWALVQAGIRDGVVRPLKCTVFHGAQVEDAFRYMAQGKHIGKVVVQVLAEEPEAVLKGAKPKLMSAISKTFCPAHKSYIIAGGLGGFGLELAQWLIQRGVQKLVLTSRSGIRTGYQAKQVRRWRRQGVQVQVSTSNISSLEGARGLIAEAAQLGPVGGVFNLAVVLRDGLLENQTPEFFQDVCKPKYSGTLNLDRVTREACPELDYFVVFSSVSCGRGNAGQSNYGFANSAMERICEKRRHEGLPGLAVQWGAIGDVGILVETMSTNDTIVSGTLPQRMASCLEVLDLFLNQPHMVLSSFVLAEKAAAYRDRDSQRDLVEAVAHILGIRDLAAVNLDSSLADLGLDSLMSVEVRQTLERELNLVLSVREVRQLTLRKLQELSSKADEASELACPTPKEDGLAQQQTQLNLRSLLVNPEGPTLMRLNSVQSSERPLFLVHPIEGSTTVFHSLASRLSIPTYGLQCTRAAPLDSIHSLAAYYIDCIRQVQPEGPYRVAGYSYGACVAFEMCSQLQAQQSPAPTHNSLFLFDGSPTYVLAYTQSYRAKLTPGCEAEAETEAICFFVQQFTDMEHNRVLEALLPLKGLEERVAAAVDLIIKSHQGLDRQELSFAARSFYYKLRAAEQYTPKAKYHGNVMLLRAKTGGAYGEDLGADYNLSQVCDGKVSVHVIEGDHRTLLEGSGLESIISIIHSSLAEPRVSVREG

| Compound | IC50 (Fatty acid synthase [1]) | IC50 (Fatty acid synthase [2]) | EC50 [3] | further results |
| --- | --- | --- | --- | --- |
| CC1CCCCN1C(=O)COC(=O)c1cc([N+](=O)[O-])ccc1N1CCOCC1 (stereo not drawn) | 9.09 µM (active) | 10.9 µM (active) | – | – |
| CCn1c(S)nnc1CC(C)C | – | – | > 260 µM (inactive) | AC50 (Cytochrome P450 1A2): 22.4 µM (inconclusive) |
| CC(=O)Nc1ccc(N/C=C/C(=O)C(C)(C)C)cc1 | – | – | > 260 µM (inactive) | – |
| CC1CCCN(S(=O)(=O)c2ccc(NC(=O)Cc3ccc(S(=O)(=O)N4CCOCC4)s3)cc2)C1 (stereo not drawn) | 7.85 µM (active) | 9.35 µM (active) | – | – |
| CC(=O)c1ccc(N2CCN(S(=O)(=O)c3ccc(-c4cnc(C5CC5)o4)cc3)CC2)cc1 | 24.4 µM (inactive) | 11.6 µM (active) | – | AC50 [4]: 5.95 µM (active); AC50 [5]: 38.7 µM (active); AC50 [6]: 20.8 µM (active) |
| COC(=O)CCC(=O)COc1ccc(OC)cc1C#N | – | – | 105 µM (active) | – |
| O=C(NCCCc1ccccc1)c1cc([N+](=O)[O-])ccc1Cl | 1.1 µM (active) | 3.28 µM (active) | – | – |
| O=C(c1ccc(Cl)c(S(=O)(=O)NCc2ccco2)c1)N1CCN(c2ccccc2F)CC1 | – | – | > 260 µM (inactive) | – |
| COc1ccc(Cl)cc1N(CC(=O)Nc1ccccc1SC)S(C)(=O)=O | – | – | > 260 µM (inactive) | – |
| Cc1cc(C(c2ccc(O)cc2)c2cc(C)c(O)cc2C)c(C)cc1O | – | – | – | CC50 [7]: 20 µM (active); AC50 [8]: 4.7 µM (active); EC50 (Protein RecA): 100 µM (active) |
| CC(C)CCNC(=O)C1CC(c2cccc([N+](=O)[O-])c2)=NO1 (stereo not drawn) | 8.3 µM (active) | 11 µM (active) | – | – |
| C=CC[n+]1c(-c2ccc(OC)cc2)csc1NNC(=O)Nc1ccccc1 | – | – | > 260 µM (inactive) | – |
| COc1ccc(N/C=C(\C=C\C#N)S(=O)(=O)c2ccccc2)cc1 | – | – | > 260 µM (inactive) | – |
| O=C(COC(=O)c1cc([N+](=O)[O-])ccc1N1CCOCC1)NC1CCCCC1 | 0.321 µM (active) | 0.266 µM (active) | – | – |
| COc1ccccc1/C=C/C(=O)c1cc(Br)ccc1OC(=O)c1ccco1 | – | – | 20.5 µM (active) | – |
| N#C/C(=C\c1cccc(NC(=O)c2ccccc2Cl)c1)C(=O)NCCc1ccccc1 | – | – | – | CC50 [7]: 15.6 µM (active); EC50 [9]: 14.4 µM (active); EC50 [10]: 15.1 µM (active); AC50 [8]: 8.73 µM (active); EC50 (Protein RecA): 11.2 µM (active) |
| CCOC(=O)C1CCN(C(=O)c2cc3cc4ccc(C)cc4nc3o2)CC1 | 11.3 µM (active) | 12.2 µM (active) | – | – |
| N#CC1(NC(=O)COC(=O)c2cc([N+](=O)[O-])ccc2N2CCCC2)CCCCC1 | 7.64 µM (active) | 5.51 µM (active) | – | – |
| N#CC1=C(N)Oc2[nH]nc(-c3cccs3)c2C1c1ccsc1 (stereo not drawn) | – | – | – | AC50 [8]: 2.2 µM (active); EC50 (Protein RecA): 0.672 µM (active) |
| CCOC(=O)c1c(C)n(-c2ccc(C)cc2)c2c(CC(C)=O)c(Br)c(OC)c(O)c12 | – | – | > 260 µM (inactive) | – |
| Cc1c(C(=O)NCc2ccoc2)oc2ccc3c(c12)C(=O)CC(C)(C)O3 | – | – | – | EC50 [11]: 33.7 µM (active); EC50 (H4): > 120 µM (not active) |
| CN(Cc1ccccc1)c1nc(N)c([N+](=O)[O-])c(NCc2ccccc2)n1 | – | – | > 260 µM (inactive) | – |
| O=C(Oc1ccc(Br)cc1)C1CC(=O)N(c2ccc(F)cc2)C1 (stereo not drawn) | – | – | – | AC50 [8]: 7.12 µM (active); EC50 (Protein RecA): 11.8 µM (active) |
| CCCc1nn(C)c2c1C(c1cccnc1)C(C#N)=C(N)O2 (stereo not drawn) | – | – | – | AC50 [8]: 6.1 µM (active); EC50 (Protein RecA): 3.83 µM (active) |
| COc1ccc(C(c2nnnn2-c2c(C)cccc2C)N2CCC(n3c(O)nc4ccccc43)CC2)cc1 (stereo not drawn) | 16.5 µM (active) | 16 µM (active) | – | – |
| COc1cccc(Sc2ccccc2/C=N/NC(N)=O)c1 | – | – | > 260 µM (inactive) | – |
| O=C(CN1C(=O)c2cccc([N+](=O)[O-])c2C1=O)N1CCc2ccccc2C1 | – | 9.41 µM (active) | – | – |
| C/C(CC(=O)N1CCN(C=O)CC1)=N\NC(=O)c1cccc([N+](=O)[O-])c1 | – | – | – | AC50 [8]: 24.7 µM (active); EC50 (Protein RecA): 1.99 µM (active) |
| Cc1cccc(/C=N\NC(=O)c2csnn2)c1 | – | – | > 260 µM (inconclusive) | – |
